Patent US20240217966A1, “PHARMACEUTICAL COMPOSITION CONTAINING GLP-1 RECEPTOR AGONIST HAVING FUSED RING” (Shionogi & Co., Ltd., priority 2021, published 2024)

Target: T1, Human GLP-1 receptor (Homo sapiens, UniProt P43220)
T1 construct: expressed in transfected cells
Assay: Measurement of GLP-1 receptor agonist activity (cAMP assay)
Assay type: cell-based
Settings: cAMP increase in GLP-1 R/CHO-K1 cells, 2 nM human GLP-1 (7-36) = 100%, DMSO only = 0%; for Emax: CHO-K1, maximum effect, read-out: Emax
Outline: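 Agonism measured as cAMP accumulation by time-resolved FRET immunoassay in CHO-K1 cells stably expressing human GLP-1 receptor. Cells treated for 1 h at 37 °C with compound and forskolin (400 μM stock), in buffer containing the PDE inhibitors IBMX (0.1 mM) and RO20-1724 (0.2 mM).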

T1 sequence (P43220 24-463): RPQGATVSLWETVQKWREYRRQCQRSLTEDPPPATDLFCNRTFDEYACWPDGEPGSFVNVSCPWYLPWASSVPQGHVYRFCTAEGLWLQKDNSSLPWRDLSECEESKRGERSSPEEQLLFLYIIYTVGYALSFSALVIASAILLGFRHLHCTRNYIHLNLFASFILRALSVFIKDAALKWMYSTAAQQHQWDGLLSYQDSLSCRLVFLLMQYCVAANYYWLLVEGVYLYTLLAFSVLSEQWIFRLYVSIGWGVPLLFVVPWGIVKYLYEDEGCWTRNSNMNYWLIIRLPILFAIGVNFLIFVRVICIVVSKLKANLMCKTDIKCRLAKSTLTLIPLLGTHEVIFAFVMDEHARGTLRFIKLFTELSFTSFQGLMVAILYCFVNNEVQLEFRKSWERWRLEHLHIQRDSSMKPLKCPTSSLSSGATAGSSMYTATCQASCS

| Emax | EC50 | SMILES |
| --- | --- | --- |
| 115% | 0.0871 nM | C[C@H]1c2nc(OCc3ccc(F)cc3)c(C(F)(F)F)cc2CCN1Cc1nc2ccc(C(=O)O)c(F)c2n1C[C@@H]1CCO1 [Compound I-308] |
| 84.3% | 2.28 nM | C[C@H]1c2cc(OCc3ccc(Cl)cn3)c(Cl)cc2CCN1Cc1nc2ccc(C(=O)O)cc2n1C[C@@H]1CCO1 [Compound I-309] |
| 91% | 0.415 nM | COc1cc(Cl)ccc1COc1cc2c(cc1Cl)CCN(Cc1nc3ccc(C(=O)O)cc3n1C[C@@H]1CCO1)[C@H]2C [Compound I-310] |
| 124% | 0.972 nM | C[C@H]1c2cc(OCc3ccc(Cl)cc3Cl)c(Cl)cc2CCN1Cc1nc2ccc(C(=O)O)cc2n1C[C@@H]1CCO1 [Compound I-311] |
| 102% | 2.03 nM | C[C@H]1c2cc(OCc3c(F)cc(Cl)cc3F)c(Cl)cc2CCN1Cc1nc2ccc(C(=O)O)cc2n1C[C@@H]1CCO1 [Compound I-312] |
| 94% | 7.87 nM | Cc1ccc(COc2cc3c(cc2Cl)CCN(Cc2nc4ccc(C(=O)O)nc4n2C[C@@H]2CCO2)[C@H]3C)cc1 [Compound I-313] |
| 98.3% | 0.537 nM | COc1cc(Cl)ccc1COc1cc2c(cc1Cl)CCN(Cc1nc3ccc(C(=O)O)nc3n1C[C@@H]1CCO1)[C@H]2C [Compound I-314] |
| 94.3% | 2.1 nM | C[C@H]1c2cc(OCc3ccc(Cl)cc3F)c(Cl)cc2CCN1Cc1nc2ccc(C(=O)O)nc2n1C[C@@H]1CCO1 [Compound I-315] |
| 117% | 1.66 nM | C[C@H]1c2cc(OCc3ccc(Cl)cc3Cl)c(Cl)cc2CCN1Cc1nc2ccc(C(=O)O)nc2n1C[C@@H]1CCO1 [Compound I-316] |
| 97.7% | 2.56 nM | Cc1ccc(COc2cc3c(cc2Cl)CCN(Cc2nc4ccc(C(=O)O)c(F)c4n2C[C@@H]2CCO2)[C@H]3C)cc1 [Compound I-317] |
| 91.3% | 4.55 nM | COc1ccc(COc2cc3c(cc2Cl)CCN(Cc2nc4ccc(C(=O)O)c(F)c4n2C[C@@H]2CCO2)[C@H]3C)cc1 [Compound I-318] |
| 95.3% | 2.43 nM | C[C@H]1c2cc(OCc3ccc(Cl)cc3)c(Cl)cc2CCN1Cc1nc2ccc(C(=O)O)c(F)c2n1C[C@@H]1CCO1 [Compound I-319] |
| 90.3% | 1.63 nM | C[C@H]1c2cc(OCc3ccc(Cl)cn3)c(Cl)cc2CCN1Cc1nc2ccc(C(=O)O)c(F)c2n1C[C@@H]1CCO1 [Compound I-320] |
| 84% | 9.85 nM | C[C@H]1c2cc(OCc3ccc(C4CC4)cc3)c(Cl)cc2CCN1Cc1nc2ccc(C(=O)O)c(F)c2n1C[C@@H]1CCO1 [Compound I-321] |
| 89% | 3.51 nM | C[C@H]1c2cc(OCc3ccccc3Cl)c(Cl)cc2CCN1Cc1nc2ccc(C(=O)O)c(F)c2n1C[C@@H]1CCO1 [Compound I-322] |
| 101% | 1.7 nM | C[C@H]1c2cc(OCc3ccc(F)cc3F)c(Cl)cc2CCN1Cc1nc2ccc(C(=O)O)c(F)c2n1C[C@@H]1CCO1 [Compound I-323] |
| 100% | 0.466 nM | C[C@H]1c2cc(OCc3ccc(Cl)cc3F)c(Cl)cc2CCN1Cc1nc2ccc(C(=O)O)c(F)c2n1C[C@@H]1CCO1 [Compound I-324] |
| 105% | 0.655 nM | C[C@H]1c2cc(OCc3ccc(Cl)cc3Cl)c(Cl)cc2CCN1Cc1nc2ccc(C(=O)O)c(F)c2n1C[C@@H]1CCO1 [Compound I-325] |
| 109% | 1.31 nM | C[C@H]1c2cc(OCc3cc(F)c(Cl)cc3F)c(Cl)cc2CCN1Cc1nc2ccc(C(=O)O)c(F)c2n1C[C@@H]1CCO1 [Compound I-326] |
| 100% | 1.06 nM | C[C@H]1c2cc(OCc3ccc(OC(F)F)cc3F)c(Cl)cc2CCN1Cc1nc2ccc(C(=O)O)c(F)c2n1C[C@@H]1CCO1 [Compound I-327] |
| 87.3% | 1.73 nM | C[C@H]1c2cc(OCc3c(F)cc(F)cc3F)c(Cl)cc2CCN1Cc1nc2ccc(C(=O)O)c(F)c2n1C[C@@H]1CCO1 [Compound I-328] |
| 96.7% | 1.16 nM | C[C@H]1c2cc(OCc3c(F)cc(Cl)cc3F)c(Cl)cc2CCN1Cc1nc2ccc(C(=O)O)c(F)c2n1C[C@@H]1CCO1 [Compound I-329] |
| 93% | 1.22 nM | Cc1ccc(COc2cc3c(cc2Cl)CCN(Cc2nc4c(F)cc(C(=O)O)cc4n2C[C@@H]2CCO2)[C@H]3C)cc1 [Compound I-330] |
| 102% | 2.7 nM | COc1ccc(COc2cc3c(cc2Cl)CCN(Cc2nc4c(F)cc(C(=O)O)cc4n2C[C@@H]2CCO2)[C@H]3C)cc1 [Compound I-331] |
| 105% | 1.38 nM | C[C@H]1c2cc(OCc3ccc(Cl)cc3)c(Cl)cc2CCN1Cc1nc2c(F)cc(C(=O)O)cc2n1C[C@@H]1CCO1 [Compound I-332] |

| Emax | EC50 | SMILES |
| --- | --- | --- |
| 116% | 8.05 nM | C[C@H]1c2cc(OCc3ccc(C4CC4)cc3)c(Cl)cc2CCN1Cc1nc2c(F)cc(C(=O)O)cc2n1C[C@@H]1CCO1 [Compound I-333] |
| 114% | 0.223 nM | COc1cc(Cl)ccc1COc1cc2c(cc1Cl)CCN(Cc1nc3c(F)cc(C(=O)O)cc3n1C[C@@H]1CCO1)[C@H]2C [Compound I-334] |
| 98% | 1.23 nM | C[C@H]1c2cc(OCc3ccc(F)cc3F)c(Cl)cc2CCN1Cc1nc2c(F)cc(C(=O)O)cc2n1C[C@@H]1CCO1 [Compound I-335] |
| 100% | 0.696 nM | C[C@H]1c2cc(OCc3ccc(Cl)cc3F)c(Cl)cc2CCN1Cc1nc2c(F)cc(C(=O)O)cc2n1C[C@@H]1CCO1 [Compound I-336] |
| 104% | 0.325 nM | C[C@H]1c2cc(OCc3ccc(Cl)cc3Cl)c(Cl)cc2CCN1Cc1nc2c(F)cc(C(=O)O)cc2n1C[C@@H]1CCO1 [Compound I-337] |
| 100% | 1.27 nM | C[C@H]1c2cc(OCc3cc(F)c(Cl)cc3F)c(Cl)cc2CCN1Cc1nc2c(F)cc(C(=O)O)cc2n1C[C@@H]1CCO1 [Compound I-338] |
| 105% | 0.377 nM | C[C@H]1c2cc(OCc3c(F)cc(Cl)cc3F)c(Cl)cc2CCN1Cc1nc2c(F)cc(C(=O)O)cc2n1C[C@@H]1CCO1 [Compound I-339] |
| 105% | 0.31 nM | COc1cc(C(=O)O)cc2c1nc(CN1CCc3cc(Cl)c(OCc4ccc(C)cc4)cc3[C@@H]1C)n2C[C@@H]1CCO1 [Compound I-340] |
| 125% | 0.236 nM | COc1cc(C(=O)O)cc2c1nc(CN1CCc3cc(Cl)c(OCc4ccc(Cl)cc4)cc3[C@@H]1C)n2C[C@@H]1CCO1 [Compound I-341] |
| 97.3% | 1.95 nM | COc1cc(C(=O)O)cc2c1nc(CN1CCc3cc(Cl)c(OCc4ccc(C5CC5)cc4)cc3[C@@H]1C)n2C[C@@H]1CCO1 [Compound I-342] |
| 111% | 0.063 nM | COc1cc(Cl)ccc1COc1cc2c(cc1Cl)CCN(Cc1nc3c(OC)cc(C(=O)O)cc3n1C[C@@H]1CCO1)[C@H]2C [Compound I-343] |
| 110% | 0.0824 nM | COc1cc(C(=O)O)cc2c1nc(CN1CCc3cc(Cl)c(OCc4ccc(Cl)cc4F)cc3[C@@H]1C)n2C[C@@H]1CCO1 [Compound I-344] |
| 129% | 0.096 nM | COc1cc(C(=O)O)cc2c1nc(CN1CCc3cc(Cl)c(OCc4ccc(Cl)cc4Cl)cc3[C@@H]1C)n2C[C@@H]1CCO1 [Compound I-345] |
| 117% | 0.354 nM | COc1cc(C(=O)O)cc2c1nc(CN1CCc3cc(Cl)c(OCc4cc(F)c(Cl)cc4F)cc3[C@@H]1C)n2C[C@@H]1CCO1 [Compound I-346] |
| 110% | 0.241 nM | Cc1ccc(COc2nc3c(cc2C(F)(F)F)CCN(Cc2nc4ccc(C(=O)O)nc4n2C[C@@H]2CCO2)[C@H]3C)cc1 [Compound I-347] |
| 129% | 0.206 nM | C[C@H]1c2nc(OCc3ccc(Cl)cc3)c(C(F)(F)F)cc2CCN1Cc1nc2ccc(C(=O)O)nc2n1C[C@@H]1CCO1 [Compound I-348] |
| 117% | 1.27 nM | C[C@H]1c2nc(OCc3ccc(C4CC4)cc3)c(C(F)(F)F)cc2CCN1Cc1nc2ccc(C(=O)O)nc2n1C[C@@H]1CCO1 [Compound I-349] |
| 113% | 0.0964 nM | COc1cc(Cl)ccc1COc1nc2c(cc1C(F)(F)F)CCN(Cc1nc3ccc(C(=O)O)nc3n1C[C@@H]1CCO1)[C@H]2C [Compound I-350] |
| 121% | 0.156 nM | C[C@H]1c2nc(OCc3ccc(Cl)cc3Cl)c(C(F)(F)F)cc2CCN1Cc1nc2ccc(C(=O)O)nc2n1C[C@@H]1CCO1 [Compound I-351] |
| 113% | 0.122 nM | C[C@H]1c2nc(OCc3cc(F)c(Cl)cc3F)c(C(F)(F)F)cc2CCN1Cc1nc2ccc(C(=O)O)nc2n1C[C@@H]1CCO1 [Compound I-352] |
| 115% | 0.0558 nM | Cc1ccc(COc2nc3c(cc2C(F)(F)F)CCN(Cc2nc4ccc(C(=O)O)c(F)c4n2C[C@@H]2CCO2)[C@H]3C)cc1 [Compound I-353] |
| 122% | 0.139 nM | COc1ccc(COc2nc3c(cc2C(F)(F)F)CCN(Cc2nc4ccc(C(=O)O)c(F)c4n2C[C@@H]2CCO2)[C@H]3C)cc1 [Compound I-354] |
| 119% | 0.102 nM | C[C@H]1c2nc(OCc3ccc(Cl)cn3)c(C(F)(F)F)cc2CCN1Cc1nc2ccc(C(=O)O)c(F)c2n1C[C@@H]1CCO1 [Compound I-355] |
| 118% | 0.25 nM | C[C@H]1c2nc(OCc3ccc(C4CC4)cc3)c(C(F)(F)F)cc2CCN1Cc1nc2ccc(C(=O)O)c(F)c2n1C[C@@H]1CCO1 [Compound I-356] |
| 123% | 0.0425 nM | COc1cc(Cl)ccc1COc1nc2c(cc1C(F)(F)F)CCN(Cc1nc3ccc(C(=O)O)c(F)c3n1C[C@@H]1CCO1)[C@H]2C [Compound I-357] |
